# In patent US6481153B1, “Turf additive formulation for reduction of localized dry spots due to water repellency” (Milliken & Company, priority 2001, dated 2002):
# Test system: not listed separately
# Assay: hydrophobic sand humic acid removal test
# Conditions: formulation diluted 42 parts water:1 part; 2 ml on 3 g humic acid coated sand; dried 60° C. 24 hours; 10 ml distilled water passed through; absorbance at 620 nm vs humic acid calibration curve
# Experimental: Initially, a calibrated stock solution measurement curve for humic acid itself was generated for comparison purposes with tested humic acid removal samples. Thus, a 5000 ppm Humic Acid (purchased from Fluka Chemika) stock solution was prepared by dissolving 0.5 grams of Humic acid in 100 milliliters of water. Further standard solutions were prepared by serial dilution of the 5000 ppm sandard stock solution. The absorbance of each solution was measured at 620 nm on a Beckman Model DU 650 Spectrophotometer and a plot of absorbance versus concentration provided the Humic
# The Examples, listed above, both inventive and comparative, were then each individually diluted with water (42 parts water:1 part example formulation). Two milliliters of each diluted example was then placed into the open end of a 19 inch clear plastic tube containing 3 grams of the above specific humic acid coated sand. One end was then plugged by a two-layer cheese cloth square of 1.5×1.5 cm and then the tube was situated vertically with the plugged end lower. The solutions were allowed to pass through the sand and were collected after passing through the plug. The sand was then placed in an oven at 60° C. for 24 hours to remove any residual moisture. The sand (3 grams) was again packed into a 19 inch clear plastic tube plugged at one end with the cheese cloth plug. Ten ml of distilled water was then passed through the sand and collected. The absorbance at 620 nm of the distilled water sample was then measured and compared to the humic acid calibration curve (from the Table, above) to determine the amount of humic acid removed from the coated sand. This test is, for the context of this invention, is the definition of “hydrophobic sand humic acid removal test”.
row,Compound,ppm Removed (Removal of Humic acid from Sand) [ppm]
1,"O=C([O-])CCCCCCCCC(=O)[O-].[K+].[K+] [Example 4, Potassium sebacate]",789.78
2,TPSA Dipotassium Salt [Example 6],837.52
3,fully neutralized n-octenyl succinic anhydride sulfanilic sodium salt [Example 9],1015.15
4,TPSA Mono-TEA Salt [Example 7],872.40
5,TPSA Di-TEA Salt [Example 8],246.46

# Test system: grass
# Assay: not given
# Conditions: in vivo; cited from earlier work
row,Compound,phytotoxicity to grass
1,[Na+].[OH-] [sodium hydroxide],highly phytotoxic
